For experiment [1], the target named is RON (human) (Homo sapiens, UniProt Q04912). In words: RON kinase AlphaScreen assay (Km of ATP). Type of experiment: biochemical. The conditions noted are these: ATP at Km; at least duplicate experiments. The procedure: (§1) Person skilled in the art will appreciate that a variety of assay formats may be used to determine the activity of the compounds of this invention. For example, AlphaScreen (Amplified Luminescent Proximity Homogeneous Assay) technology was used with the kinases described below. Assay ATP concentrations for individual kinases are included in the text.
Chain of RON (human) (Q04912 25-1400): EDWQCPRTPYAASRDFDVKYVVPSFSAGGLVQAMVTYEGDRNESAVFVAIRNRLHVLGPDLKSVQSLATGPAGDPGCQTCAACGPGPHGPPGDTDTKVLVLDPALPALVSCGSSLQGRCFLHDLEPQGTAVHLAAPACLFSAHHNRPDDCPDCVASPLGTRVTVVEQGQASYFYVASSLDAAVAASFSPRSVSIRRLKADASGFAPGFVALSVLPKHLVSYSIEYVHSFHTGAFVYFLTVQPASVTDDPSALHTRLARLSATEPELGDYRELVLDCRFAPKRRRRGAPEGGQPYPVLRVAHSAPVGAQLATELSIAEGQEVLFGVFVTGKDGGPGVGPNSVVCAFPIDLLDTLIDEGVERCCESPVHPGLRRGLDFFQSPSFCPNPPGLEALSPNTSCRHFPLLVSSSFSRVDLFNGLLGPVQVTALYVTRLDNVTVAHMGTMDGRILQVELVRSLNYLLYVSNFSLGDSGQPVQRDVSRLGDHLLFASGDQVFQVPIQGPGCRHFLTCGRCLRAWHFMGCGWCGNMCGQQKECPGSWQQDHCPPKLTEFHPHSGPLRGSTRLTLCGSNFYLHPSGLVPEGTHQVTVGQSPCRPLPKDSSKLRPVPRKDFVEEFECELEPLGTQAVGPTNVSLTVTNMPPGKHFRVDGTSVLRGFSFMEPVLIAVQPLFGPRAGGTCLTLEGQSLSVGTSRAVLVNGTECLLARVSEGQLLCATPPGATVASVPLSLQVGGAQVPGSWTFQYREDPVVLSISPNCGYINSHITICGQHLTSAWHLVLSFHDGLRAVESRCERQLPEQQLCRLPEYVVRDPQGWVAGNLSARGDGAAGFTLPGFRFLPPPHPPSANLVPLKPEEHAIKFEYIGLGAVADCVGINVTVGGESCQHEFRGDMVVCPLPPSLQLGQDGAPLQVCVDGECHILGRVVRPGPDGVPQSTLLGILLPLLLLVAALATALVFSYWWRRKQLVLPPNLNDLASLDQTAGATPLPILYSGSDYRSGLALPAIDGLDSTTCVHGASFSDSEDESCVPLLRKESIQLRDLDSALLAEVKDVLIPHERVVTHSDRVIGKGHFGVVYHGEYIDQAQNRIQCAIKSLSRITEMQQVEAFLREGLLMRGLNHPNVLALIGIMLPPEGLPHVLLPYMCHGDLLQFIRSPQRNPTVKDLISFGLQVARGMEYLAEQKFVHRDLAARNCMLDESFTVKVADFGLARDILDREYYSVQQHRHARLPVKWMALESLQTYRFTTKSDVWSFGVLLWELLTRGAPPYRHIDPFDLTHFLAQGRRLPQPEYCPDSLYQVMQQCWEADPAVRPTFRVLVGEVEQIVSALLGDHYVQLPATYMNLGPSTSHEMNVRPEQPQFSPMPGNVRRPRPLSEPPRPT
RON (human)—Km of ATP: RON assay is performed in a 384 well assay containing 200 ng/μL biotinylated poly(Glu,Tyr), 0.334 mM vanadate, desired concentration of ATP optimized for the enzyme in assay buffer (50 mM HEPES (pH=7.4), 12.5 mM MgCl2 and 1% glycerol). Desired compound is added in a final concentration of 1% DMSO with control being vehicle of DMSO alone. RON is diluted to the optimized (on a lot-by-lot basis) concentration in an enzyme diluent buffer (50 mM HEPES pH=7.4, 12.5 mM MgCl2 and 1% glycerol, 0.03% Brij35, 0.3 mM EGTA, lmM DTT, and 0.003% BSA). Enzyme is added to initiate the reaction and incubated for 30 min at RT. In subdued light, appropriate amount of PT66 donor and acceptor beads (diluted 1:260 from manufacturer's provision in a 25 mM Tris HCl (pH=7.5), 200 mM NaCl, 100 mM EDTA, 0.3% BSA buffer) are added to the wells. The plates, incubated for 1 h, are read on an AlphaQuest plate reader.
A general note: Alpha assays give light when donor and acceptor beads are brought close together.

Experiment [2] deals with MET (human) (Homo sapiens, UniProt P08581). In words: MET kinase AlphaScreen assay (Km of ATP). Type of experiment: biochemical. The conditions noted are these: ATP at Km; at least duplicate experiments. The protocol:
as §1
MET (human)—Km of ATP: MET assay is performed in a 384 well assay containing 200 ng/μL biotinylated poly(Glu,Tyr), 0.334 mM vanadate, desired concentration of ATP optimized for the enzyme in assay buffer (50 mM HEPES (pH=7.4), 5 mM MgCl2, 5 mM MnCl2, and 1% glycerol). Desired compound is added in a final concentration of 1% DMSO with control being vehicle of DMSO alone. MET is diluted to the optimized concentration (optimized on a lot-by-lot basis) in an enzyme diluent buffer (50 mM Tris pH=7.4, 1% glycerol, 0.03% Brij35, 0.24 mM EGTA, 1 mM DTT, and 0.003% BSA). Enzyme is added to initiate the reaction and incubated for 60 min at RT. In subdued light, appropriate amount of PT66 donor and acceptor beads (diluted 1:260 from manufacturer's provision in a 25 mM Tris HCl (pH=7.5), 400 mM NaCl, 100 mM EDTA, 0.3% BSA buffer) are added to the wells. The plates, incubated for 1 h, are read on an AlphaQuest plate reader

Structures can show the parent of a compound that is named as a salt.

Consider 27 compounds from patent US8178668B2, “2-aminopyridine kinase inhibitors” (OSI Pharmaceuticals, LLC, priority 2008, dated 2012).

The term IC50 denotes the point on the concentration scale where inhibition reaches its midpoint. Read a low IC50 as greater potency.

Chain of MET (human) (P08581 25-1390): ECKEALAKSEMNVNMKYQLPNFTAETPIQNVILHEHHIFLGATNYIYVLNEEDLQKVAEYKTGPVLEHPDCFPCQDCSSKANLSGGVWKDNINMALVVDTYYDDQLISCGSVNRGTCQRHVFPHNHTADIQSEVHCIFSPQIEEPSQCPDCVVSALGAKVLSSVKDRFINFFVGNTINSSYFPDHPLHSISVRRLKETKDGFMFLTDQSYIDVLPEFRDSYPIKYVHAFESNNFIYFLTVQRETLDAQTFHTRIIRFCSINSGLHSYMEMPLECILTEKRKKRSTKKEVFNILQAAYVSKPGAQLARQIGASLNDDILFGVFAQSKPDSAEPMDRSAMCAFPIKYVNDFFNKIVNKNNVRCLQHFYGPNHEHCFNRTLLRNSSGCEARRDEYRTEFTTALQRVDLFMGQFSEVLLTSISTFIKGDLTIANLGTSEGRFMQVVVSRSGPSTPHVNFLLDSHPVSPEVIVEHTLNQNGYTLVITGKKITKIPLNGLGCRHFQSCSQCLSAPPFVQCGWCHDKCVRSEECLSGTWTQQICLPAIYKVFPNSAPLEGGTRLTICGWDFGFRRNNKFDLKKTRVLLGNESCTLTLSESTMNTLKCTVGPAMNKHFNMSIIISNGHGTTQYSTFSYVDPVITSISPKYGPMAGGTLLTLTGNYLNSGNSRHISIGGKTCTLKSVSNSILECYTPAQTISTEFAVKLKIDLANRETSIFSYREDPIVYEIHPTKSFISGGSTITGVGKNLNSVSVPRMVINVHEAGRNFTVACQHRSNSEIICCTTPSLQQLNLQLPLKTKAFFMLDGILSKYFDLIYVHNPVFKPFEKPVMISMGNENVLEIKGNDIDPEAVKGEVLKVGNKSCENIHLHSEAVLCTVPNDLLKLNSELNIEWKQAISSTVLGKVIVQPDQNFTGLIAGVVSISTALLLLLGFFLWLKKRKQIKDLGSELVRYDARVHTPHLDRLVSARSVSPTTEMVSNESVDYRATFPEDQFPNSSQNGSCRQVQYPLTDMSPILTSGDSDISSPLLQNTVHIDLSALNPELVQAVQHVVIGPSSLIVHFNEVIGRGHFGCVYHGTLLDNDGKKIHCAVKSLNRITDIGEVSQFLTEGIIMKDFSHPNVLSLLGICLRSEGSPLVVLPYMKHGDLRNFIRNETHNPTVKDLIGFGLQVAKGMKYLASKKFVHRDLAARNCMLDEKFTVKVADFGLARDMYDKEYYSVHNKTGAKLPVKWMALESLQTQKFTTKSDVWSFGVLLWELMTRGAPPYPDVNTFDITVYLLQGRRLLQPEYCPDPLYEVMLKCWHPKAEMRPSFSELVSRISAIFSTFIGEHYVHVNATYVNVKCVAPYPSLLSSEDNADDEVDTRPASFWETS

Regarding `Nc1ncc(-c2cnn(C3CCNCC3)c2)cc1-c1cc2c(-c3ccc[nH]3)ccc(F)c2cn1` [Example 53, 3-[8-Fluoro-5-(1H-pyrrol-2-yl)-isoquinolin-3-yl]-5-(1-piperidin-4-yl-1H-pyrazol-4-yl)-pyridin-2-ylamine], the IC50 in experiment [1] and in experiment [2] was 100 to 1000 nM in each case.
On to `Nc1ncc(-c2cccc(C(=O)NCCCn3ccnc3)c2)cc1-c1nc2ccccc2s1` [Example 223, 3-(6-Amino-5-benzothiazol-2-ylpyridin-3-yl)-N-(3-imidazol-1-ylpropyl)benzamide], for which the concentration for half-maximal inhibition (IC50) in experiment [1] and in experiment [2] was 1000 to 20000 nM in each case.
Turning to `Nc1ncc(-c2ccc[nH]2)cc1-c1nc2ccccc2s1` [Example 230, 3-(1,3-Benzothiazol-2-yl)-5-(1H-pyrrol-2-yl)pyridin-2-amine], the IC50 in experiment [1] and in experiment [2] was 1000 to 20000 nM in each case.
Regarding `CC(C(=O)N1CCCCC1)n1cc(-c2cnc(N)c(-c3nc4ccccc4s3)c2)cn1` (stereo not drawn) [Example 152, 2-[4-(6-Amino-5-benzothiazol-2-ylpyridin-3-yl)-pyrazol-1-yl]-1-piperidin-1-ylpropan-1-one], the IC50 in experiment [1] and in experiment [2] was 1000 to 20000 nM each time.
In the case of `Nc1ncc(-c2cnn(C3CCNCC3)c2)cc1-c1cc2ccc(OC(F)(F)F)cc2cn1` [Example 14, 5-(1-Piperidin-4-yl-1H-pyrazol-4-yl)-3-(7-trifluoromethoxy-isoquinolin-3-yl)-pyridin-2-ylamine trihydrochloride], the IC50 in experiment [1] and in experiment [2] was 1000 to 20000 nM throughout.
On to `Cc1c(-c2cc(-c3cnn(C4CCNCC4)c3)cnc2N)ncc2ccccc12` [Example 2, 3-(4-Methylisoquinolin-3-yl)-5-(1-piperidin-4-yl-1H-pyrazol-4-yl)-pyridin-2-ylamine trihydrochloride], for which the IC50 was greater than 20000 nM in experiment [1] and 1000 to 20000 nM in experiment [2].
In the case of `Nc1ncc(-c2cccc(O)c2)cc1-c1nc2ccccc2s1` [Example 233, 3-[6-Amino-5-(1,3-benzothiazol-2-yl)pyridin-3-yl]phenol], the IC50 is greater than 20000 nM in experiment [1] and 1000 to 20000 nM in experiment [2].
For `Cc1ccc2sc(-c3cc(-c4cnn(C5CCNCC5)c4)cnc3N)nc2c1` [Example 272, 3-(5-Methylbenzothiazol-2-yl)-5-(1-piperidin-4-yl-1H-pyrazol-4-yl)-pyridin-2-ylamine], in that order: 100 to 1000 nM and 100 to 1000 nM.
Regarding `Nc1ncc(-c2ccc(C(=O)NC3CC3)cc2)cc1-c1nc2ccccc2s1` [Example 198, 4-(6-Amino-5-benzothiazol-2-ylpyridin-3-yl)-N-cyclopropylbenzamide], the results for the IC50 in experiment [1] and in experiment [2] were greater than 20000 nM and 1000 to 20000 nM, respectively.
For `Nc1ncc(-c2cccc(C(=O)N[C@H]3CCCC[C@@H]3O)c2)cc1-c1nc2ccccc2s1` [Example 221, 3-(6-Amino-5-benzothiazol-2-ylpyridin-3-yl)-N-((1S,2S)-2-hydroxycyclohexyl)benzamide], in that order: 1000 to 20000 nM and 1000 to 20000 nM.
For `Nc1ncc(-c2cnn([C@@H]3CNC(CO)C3)c2)cc1-c1nc2ccccc2s1` (mixture of isomers) [Example 180, {(S)-4-[4-(6-Amino-5-benzothiazol-2-ylpyridin-3-yl)-pyrazol-1-yl]-pyrrolidin-2-yl}-methanol], in that order: 100 to 1000 nM and no more than 100 nM.
For `CC(=O)N1CCN(C(=O)c2cccc(-c3cnc(N)c(-c4nc5ccccc5s4)c3)c2)CC1` [Example 212, 1-{4-[3-(6-Amino-5-benzothiazol-2-ylpyridin-3-yl)benzoyl]piperazin-1-yl}ethanone], the IC50 in experiment [1] is greater than 20000 nM; in experiment [2], 1000 to 20000 nM.
As for `CC(C(=O)N1CCOCC1)n1cc(-c2cnc(N)c(-c3nc4ccccc4s3)c2)cn1` (stereo not drawn) [Example 142, 2-[4-(6-Amino-5-benzothiazol-2-ylpyridin-3-yl)-pyrazol-1-yl]-1-morpholin-4-ylpropan-1-one], the IC50 in experiment [1] and in experiment [2] was 1000 to 20000 nM throughout.
As for `Nc1ncc(-c2cnn(C3CCNCC3)c2)cc1-c1cc2ccccc2cn1` [Example 13, 3-Isoquinolin-3-yl-5-(1-piperidin-4-yl-1H-pyrazol-4-yl)-pyridin-2-ylamine trihydrochloride], the IC50 was in the range of 1000 to 20000 nM in experiment [1] and 100 to 1000 nM in experiment [2].
`Nc1ncc(-c2ccc(C(=O)O)nc2)cc1-c1nc2ccccc2s1` [Example 202, 6′-Amino-5′-benzothiazol-2-yl-[3,3′]bipyridinyl-6-carboxylic acid]: the IC50 in experiment [1] lay in the range of 1000 to 20000 nM; in experiment [2], 100 to 1000 nM.
For `Nc1ncc(-c2cnn(C3CCNCC3)c2)cc1-c1cc2cc(C(F)(F)F)ccc2cn1` [Example 16, 5-(1-Piperidin-4-yl-1H-pyrazol-4-yl)-3-(6-trifluoromethylisoquinolin-3-yl)-pyridin-2-ylamine trihydrochloride salt], the IC50 in experiment [1] and in experiment [2] was 100 to 1000 nM throughout.
For the compound `Nc1ncc(-c2cnn(C3CCNCC3)c2)cc1-c1cc2ccc(C(F)(F)F)cc2cn1` [Example 17, 5-(1-Piperidin-4-yl-1H-pyrazol-4-yl)-3-(7-trifluoromethylisoquinolin-3-yl)-pyridin-2-ylamine tri-hydrochloride salt], the IC50 in experiment [1] and in experiment [2] was 100 to 1000 nM in each case.
On to `Nc1ncc(-c2cnc(N3CCOCC3)s2)cc1-c1cc2c(Cl)ccc(F)c2cn1` [Example 61, 3-(5-Chloro-8-fluoroisoquinolin-3-yl)-5-(2-morpholin-4-ylthiazol-5-yl)-pyridin-2-ylamine], for which the IC50 in experiment [1] and in experiment [2] was greater than 20000 nM throughout.
On to `Nc1ncc(-c2cnn([C@@H]3CCNC3)c2)cc1-c1cc2c(Cl)ccc(F)c2cn1` [Example 62, 3-(5-Chloro-8-fluoroisoquinolin-3-yl)-5-((R)-1-pyrrolidin-3-yl-1H-pyrazol-4-yl)-pyridin-2-ylamine trihydrochloride], for which the IC50 in experiment [1] and in experiment [2] was 100 to 1000 nM in each case.
Consider `Nc1ncc(-c2cnn(C3CCNCC3)c2)cc1-c1nc2ccc(C(F)(F)F)cc2s1` [Example 279, 5-(1-Piperidin-4-yl-1H-pyrazol-4-yl)-3-(6-trifluoromethylbenzothiazol-2-yl)-pyridin-2-ylamine], for which the IC50 in experiment [1] and in experiment [2] was 100 to 1000 nM each time.
As to `Nc1ncc(-c2ccc(OCC(=O)NC3CCCCC3O)cc2)cc1-c1nc2ccccc2s1` (stereo not drawn) [Example 243, 2-[4-(6-Amino-5-benzothiazol-2-ylpyridin-3-yl)phenoxy]-N-(2-hydroxycyclohexyl)acetamide], the IC50 in experiment [1] was greater than 20000 nM; in experiment [2], 1000 to 20000 nM.
Regarding `CN(C)C(=O)NCC#Cc1cnc(N)c(-c2nc3ccccc3s2)c1` [Example 127, 3-[3-(6-Amino-5-benzothiazol-2-ylpyridin-3-yl)-prop-2-ynyl]-1,1-dimethylurea], the IC50 in experiment [1] and in experiment [2] was 1000 to 20000 nM each time.
On to `Nc1ncc(-c2cnn(C3CCNCC3)c2)cc1-c1nc2ccc(Cl)cc2s1` [Example 253, 3-(6-Chlorobenzothiazol-2-yl)-5-(1-piperidin-4-yl-1H-pyrazol-4-yl)-pyridin-2-ylamine], for which the IC50 in experiment [1] and in experiment [2] was 100 to 1000 nM each time.
As for `COCCNC(=O)[C@@H]1C[C@H](n2cc(-c3cnc(N)c(-c4cc5c(Cl)ccc(F)c5cn4)c3)cn2)CN1` [Example 74, (2S,4S)-4-{4-[6-Amino-5-(5-chloro-8-fluoroisoquinolin-3-yl)-pyridin-3-yl]-pyrazol-1-yl}-pyrrolidine-2-carboxylic acid (2-methoxyethyl)-amide], the IC50 in experiment [1] and in experiment [2] was 1000 to 20000 nM each time.
For the compound `Nc1ncc(-c2cnn(CCC(=O)N3CCCCC3)c2)cc1-c1nc2ccccc2s1` [Example 288, 3-[4-(6-Amino-5-benzothiazol-2-ylpyridin-3-yl)-pyrazol-1-yl]-1-piperidin-1-ylpropan-1-one], the IC50 was greater than 20000 nM in experiment [1] and 100 to 1000 nM in experiment [2].
In the case of `Nc1ncc(-c2cnn(C3CCNCC3)c2)cc1-c1cc2ccc(Br)cc2cn1` [Example 21, 3-(7-Bromoisoquinolin-3-yl)-5-(1-piperidin-4-yl-1H-pyrazol-4-yl)-pyridin-2-ylamine trihydrochloride salt], the figures for the IC50 in experiment [1] and in experiment [2] were 1000 to 20000 nM and 100 to 1000 nM, respectively.
Turning to `COCCNC(=O)C(C)n1cc(-c2cnc(N)c(-c3nc4ccccc4s3)c2)cn1` (stereo not drawn) [Example 146, 2-[4-(6-Amino-5-benzothiazol-2-ylpyridin-3-yl)-pyrazol-1-yl]-N-(2-methoxyethyl)-propionamide], the IC50 in experiment [1] and in experiment [2] was 1000 to 20000 nM throughout.
